Common to all, as to type: in vivo
Assay [1] concerns Sesbania. The experiment in a line: Post-emergence herbicidal action. From the text: (§1) A synergistic effect exists whenever the action of the active ingredient combination I and II, III, IV, V, VI, VII, VIII, IX or X is greater than the sum of the actions of the active ingredients applied individually. The herbicidal action to be expected, We, for a given combination of two herbicides can be calculated as follows (see COLBY, S. R. “Calculating synergistic and antagonistic response of herbicide combinations”. Weeds 15, pages 20-22; 1967):
(§2) We=expected herbicidal action (% herbicidal action in comparison with untreated control) after treatment with the compounds of formula I and II, III, IV, V, VI, VII, VIII, IX or X at a rate of application of p+q kg of active ingredient per hectare.
(§3) The test plants are raised in plastics pots under greenhouse conditions as far as the 2- to 3-leaf stage. A standard soil is used as the cultivation substrate. At the 2- to 3-leaf stage, the herbicides are applied individually and as mixtures to the test plants. The test compounds are applied in the form of an aqueous suspension in 500 l of water/ha. The rates of application depend on the optimum concentrations determined under field conditions and greenhouse conditions. Evaluation of the tests is made after 11 and 22 days (DAA=day after application) in % action. 100% denotes that the plants have died, 0% denotes no phytotoxic action.

For the next assay, the system named is Cassia sp. In words: Post-emergence herbicidal action.
Source text: as §1, §2, §3

The test system of a further assay is Cyperus. The experiment in a line: Herbicidal action.
The test system of the next assay is Digitaria. In words: Post-emergence herbicidal action.
Source text: as §1, §2, §3

A further assay concerns Sorghum. The experiment in a line: Post-emergence herbicidal action.
Source text: as §1, §2, §3

The subject of assay [2] is Abutilon. In words: Post-emergence herbicidal action.
Source text: as §1, §2, §3

Another assay concerns Solanum nigrum. In words: Herbicidal action. Particulars: post-emergence.
The test system of assay [3] is Sesbania. The experiment in a line: Pre-emergence herbicidal action.
Source text: as §1, §2
(§4) Monocotyledonous and dicotyledonous weeds and cultivated plants are sown in standard soil in plastics pots. Immediately after sowing, the test compounds are applied as an aqueous suspension (500 l of water/ha). The rates of application depend on the optimum concentrations determined under field conditions and greenhouse conditions. Evaluation of the tests is made after 15 and 27 days (DAA=day after application) in % action. 100% denotes that the plants have died, 0% denotes no phytotoxic action.

Another assay relates to Xanthium. The experiment in a line: Pre-emergence herbicidal action.
Source text: as §1, §2, §4

A further assay has as its system Sorghum hal. In words: Herbicidal action. The conditions noted are these: titled pre-emergence (under Example B2).
In a further assay the test system is cotton. In words: Pre-emergence herbicidal action (cultivated plant).
Source text: as §1, §2, §4

Assay [4] concerns Abutilon. The experiment in a line: Pre-emergence herbicidal action.
Source text: as §1, §2, §4

Another assay relates to Solanum. In words: Post-emergence herbicidal action.
Source text: as §1, §2, §3

On to `CCc1cccc(C)c1N(C(=O)CCl)[C@@H](C)COC` [α-metolachlor], for which the “herbicidal action on Sesbania” value with Sesbania [1] (DAA 11, 250 g/ha) came out at 0%; with Sesbania [1] (DAA 11, 500 g/ha), 0%; with Sesbania [1] (DAA 11, 1000 g/ha), 0%. The “herbicidal action on Cassia sp.” value worked out at 0% with Cassia sp. (DAA 11, 250 g/ha); 0% with Cassia sp. (DAA 11, 500 g/ha); 0% with Cassia sp. (DAA 11, 1000 g/ha).

For the compound `COc1cc(OC)nc(Sc2cccc(Cl)c2C(=O)[O-])n1.[Na+]` [pyrithiobac, pyrithiobac-sodium], the “herbicidal action on Cassia sp.” value in the assay on Cassia sp. (DAA 11, 25 g/ha) came to 50%; in the assay on Cassia sp. (DAA 11, 50 g/ha) it was 80%; with Cassia sp. (DAA 11, 100 g/ha) it was 70%.

Regarding `CP(=O)(O)CCC(N)C(=O)O` (centres unmarked) [glufosinate], the “herbicidal action on Cyperus” value with Cyperus (post-emergence, DAA 22, 250 g/ha) was determined as 35%. Moreover, the “herbicidal action on Digitaria” value with Digitaria (DAA 22, 250 g/ha) stood at 75%. In addition, in the assay on Sorghum (DAA 22, 250 g/ha), the “herbicidal action on Sorghum” value came out at 85%. For the same compound, in the assay with Abutilon [2] (DAA 22, 250 g/ha), the “herbicidal action on Abutilon” value is given as 55%.

As for `CSc1nc(NC(C)C)nc(NC(C)C)n1` [prometryn], the “herbicidal action on Solanum nigrum” value with Solanum nigrum (DAA 22, 250 g/ha) is listed as 0%; in the assay on Solanum nigrum (DAA 22, 500 g/ha), 0%; in the assay with Solanum nigrum (DAA 22, 1000 g/ha), 20%. For the same compound, in the assay with Sesbania [3] (DAA 15, 250 g/ha), the “herbicidal action on Sesbania” value is given as 10%. In the assay on Xanthium (DAA 15, 250 g/ha), the “herbicidal action on Xanthium” value is recorded as 0%.

Turning to `CN(C)C(=O)Nc1cccc(C(F)(F)F)c1` [fluometuron], the “herbicidal action on Cyperus” value in the assay with Cyperus (titled pre-emergence (under Example B2), DAA 11, 250 g/ha) is 0%; in the assay on Cyperus (titled pre-emergence (under Example B2), DAA 11, 500 g/ha) it was 25%; with Cyperus (titled pre-emergence (under Example B2), DAA 11, 1000 g/ha), 20%.

Turning to `CC1(C)CON(Cc2ccccc2Cl)C1=O` [clomazone], the “herbicidal action on Xanthium” value in the assay on Xanthium (DAA 15, 125 g/ha) was 10%; in the assay on Xanthium (DAA 15, 250 g/ha) it was 25%; with Xanthium (DAA 15, 500 g/ha), 60%.

Consider `CCC(CC)Nc1c([N+](=O)[O-])cc(C)c(C)c1[N+](=O)[O-]` [pendimethalin], for which the “herbicidal action on Xanthium” value is listed as 0% in the assay on Xanthium (DAA 15, 250 g/ha); 0% in the assay on Xanthium (DAA 15, 500 g/ha); 0% with Xanthium (DAA 15, 1000 g/ha).

Consider `CCc1cccc(C)c1N(C(=O)CCl)C(C)COC` (centres unmarked) [metolachlor], for which the “herbicidal action on Sorghum hal.” value in the assay on Sorghum hal. (DAA 22, 375 g/ha) amounted to 0%; with Sorghum hal. (DAA 22, 750 g/ha), 0%; in the assay with Sorghum hal. (DAA 22, 1500 g/ha) it was 0%.

As for `COc1cc(OC)nc(NC(=O)NOS(=O)c2ncccc2OCC(F)(F)F)n1.[Na+]` (centres unmarked) [compound of formula I], in the assay with Sorghum hal. (DAA 22, 1.88 g/ha), the “herbicidal action on Sorghum hal.” value came to 75%. For the same compound, the “herbicidal action on Cyperus” value is 70% in the assay with Cyperus (post-emergence, DAA 22, 1.88 g/ha) and 50% in the assay with Cyperus (titled pre-emergence (under Example B2), DAA 11, 3.75 g/ha). Also, the “herbicidal action on Solanum nigrum” value is 0% in the assay with Solanum nigrum (DAA 22, 1.88 g/ha); 0% in the assay on Solanum nigrum (DAA 22, 3.75 g/ha); 15% in the assay with Solanum nigrum (DAA 22, 7.5 g/ha). In addition, in the assay with cotton (DAA 27, 3.75 g/ha), the “herbicidal action on cotton (damage)” value came to 10%. For the same compound, the “herbicidal action on Sesbania” value is reported as 35% with Sesbania [3] (DAA 15, 3.75 g/ha); 25% with Sesbania [3] (DAA 27, 3.75 g/ha); 70% in the assay on Sesbania [1] (DAA 11, 1.88 g/ha). Further, the “herbicidal action on Xanthium” value in the assay on Xanthium (DAA 15, 3.75 g/ha) was 85%; with Xanthium (DAA 15, 7.5 g/ha) it was 90%; in the assay on Xanthium (DAA 27, 3.75 g/ha), 96%. Moreover, the “herbicidal action on Abutilon” value in the assay with Abutilon [4] (DAA 27, 3.75 g/ha) amounted to 50%; in the assay on Abutilon [2] (DAA 22, 1.88 g/ha), 55%. For the same compound, the “herbicidal action on Solanum” value with Solanum (DAA 11, 7.5 g/ha) is listed as 20%. For the same compound, in the assay with Digitaria (DAA 22, 1.88 g/ha), the “herbicidal action on Digitaria” value stood at 15%. The “herbicidal action on Sorghum” value in the assay on Sorghum (DAA 22, 1.88 g/ha) amounted to 75%. Also, the “herbicidal action on Cassia sp.” value in the assay on Cassia sp. (DAA 11, 1.88 g/ha) stood at 70%.

Consider `CNc1cnn(-c2cccc(C(F)(F)F)c2)c(=O)c1Cl` [norflurazon], for which the “herbicidal action on cotton (damage)” value with cotton (DAA 27, 250 g/ha) was 0%; in the assay on cotton (DAA 27, 500 g/ha), 0%. Moreover, the “herbicidal action on Sesbania” value stood at 10% with Sesbania [3] (DAA 27, 250 g/ha) and 30% with Sesbania [3] (DAA 27, 500 g/ha). Also, the “herbicidal action on Xanthium” value with Xanthium (DAA 27, 250 g/ha) is listed as 10%; in the assay with Xanthium (DAA 27, 500 g/ha), 35%. Also, the “herbicidal action on Abutilon” value was 60% in the assay on Abutilon [4] (DAA 27, 250 g/ha) and 60% in the assay with Abutilon [4] (DAA 27, 500 g/ha).

For `N#Cc1cc(Br)c(O)c(Br)c1` [bromoxynil, bromoxinil], the “herbicidal action on Solanum” value in the assay on Solanum (DAA 11, 500 g/ha) was 35%; in the assay with Solanum (DAA 11, 1000 g/ha), 40%.

The record behind these values is US6403531B1, “Herbicidal synergistic composition and method of weed control” (Syngenta Crop Protection, inc., priority 1997, dated 2002).
